Our source for the IC50 values is patent publication US5519163A, “Inhibitors of phosphoinositide-specific phospholipase C” (Merck & Co., Inc., priority 1993, dated 1996).

SMILES strings stand for the structures.

One experiment deals with T1, PLCγ1 (Rattus norvegicus, UniProt P10686).
T1 construct: made in house; host or cells: E. coli BL21 (DE3), plasmid pT5T-PLC4 (ATCC 69421)
T1 sequence (P10686 with tags, fused parts or gaps): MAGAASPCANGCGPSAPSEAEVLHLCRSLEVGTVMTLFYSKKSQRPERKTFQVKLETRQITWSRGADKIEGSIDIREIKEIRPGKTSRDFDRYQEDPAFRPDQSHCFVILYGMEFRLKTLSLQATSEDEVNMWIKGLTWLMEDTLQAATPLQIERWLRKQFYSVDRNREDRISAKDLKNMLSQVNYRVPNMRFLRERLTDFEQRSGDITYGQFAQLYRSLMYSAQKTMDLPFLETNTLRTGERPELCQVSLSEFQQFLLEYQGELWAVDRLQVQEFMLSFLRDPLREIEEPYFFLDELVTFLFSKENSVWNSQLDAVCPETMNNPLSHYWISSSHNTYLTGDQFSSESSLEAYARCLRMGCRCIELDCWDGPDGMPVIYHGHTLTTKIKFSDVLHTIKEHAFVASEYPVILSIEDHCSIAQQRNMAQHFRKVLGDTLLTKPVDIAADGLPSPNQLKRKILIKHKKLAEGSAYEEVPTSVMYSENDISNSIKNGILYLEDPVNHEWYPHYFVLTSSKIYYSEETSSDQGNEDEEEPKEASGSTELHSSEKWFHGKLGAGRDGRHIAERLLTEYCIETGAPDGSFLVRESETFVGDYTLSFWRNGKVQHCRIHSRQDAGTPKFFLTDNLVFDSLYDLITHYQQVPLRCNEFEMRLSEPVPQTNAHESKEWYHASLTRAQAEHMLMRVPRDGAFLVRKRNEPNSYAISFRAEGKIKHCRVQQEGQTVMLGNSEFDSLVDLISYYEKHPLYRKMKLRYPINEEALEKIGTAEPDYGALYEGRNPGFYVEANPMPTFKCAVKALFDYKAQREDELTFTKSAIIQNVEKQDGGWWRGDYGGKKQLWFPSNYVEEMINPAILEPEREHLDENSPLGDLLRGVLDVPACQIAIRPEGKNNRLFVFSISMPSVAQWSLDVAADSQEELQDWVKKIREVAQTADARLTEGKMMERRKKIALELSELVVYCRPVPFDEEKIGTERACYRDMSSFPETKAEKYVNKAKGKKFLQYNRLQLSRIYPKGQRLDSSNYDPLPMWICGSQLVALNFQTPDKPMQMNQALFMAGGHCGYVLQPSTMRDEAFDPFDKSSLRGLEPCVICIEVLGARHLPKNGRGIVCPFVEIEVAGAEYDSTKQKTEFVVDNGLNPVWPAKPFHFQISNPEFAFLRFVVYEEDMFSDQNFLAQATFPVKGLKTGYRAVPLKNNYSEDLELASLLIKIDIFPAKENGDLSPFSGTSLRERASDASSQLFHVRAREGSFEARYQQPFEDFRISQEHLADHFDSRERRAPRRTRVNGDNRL
The experiment is described as follows: Inhibition of purified recombinant PLCγ1 ([3H]-phosphatidyl inositol hydrolysis). It counts as biochemical. Conditions: PLCγ1, 30° C., phosphatidyl inositol substrate; Tables 1 and 2. From the text:
Subcloning of the PLCγ Coding Sequence. Rat brain cDNA is synthesized using rat brain poly(A)RNA as template by literature protocol (Sanbrook, J. et al., Molecular Cloning: A Laboratry Manual, Cold Spring Harbor Laboratory Press, Cold Spring Harbor, N.Y.). From the published cDNA sequence of rat brain PLCγ1 (Suh, P.-G., Ryu, S. H., Moon, K. H., Suh, H. W., & Rhee, S. G. (1988) Proc. Natl. Acad. Sci. USA 85, 5419-5423), PCR primers, one which contains a BamHI restriction site upstream of the sequence complementary to the 5' end of the PLCγ1 gene (primer 01), and the other one which contains a HindIII site downsteam of the 3' end of the PLCγ gene (primer 04), were synthesized. Carrying out the PCR using these primers (01 and 04) with the above mentioned rat brain cDNA as template, a DNA fragment with the entire rat brain PLCγ1 coding sequence, flanked by a 5' BamHI site and a 3' HindIII site, is generated. This BamHI-HindIII fragment containing the coding sequence of PLCγ was subcloned into pBSII(S/K)+, generating pPLC1. The rest of the manipulations were accomplished using PCR to generate the appropriate DNA fragment. […]
Broadly, the IC50 is the concentration that inhibits the measured activity by half. `O=P(O)(O)C(O)c1ccc(Oc2ccccc2)cc1` (stereo not shown) [reference compound]: the IC50 is greater than 300 µM.

The test system of a further experiment is PLCβ. As to the kind of experiment: Inhibition of PLCβ purified from bovine brain (assay mixture as in Example 12). It counts as biochemical. Conditions: PLCβ from bovine brain substituted for PLCγ; Tables 3 and 4. As for the experimental part:
Assay of purified PLCγ1 activitiy. Activity of the purified PLCγ1 was assayed at 30° C. Reactions were never allowed to proceed to more than 10% completion based on the limiting substrate. A typical reaction contained the following: 50 mM HEPES pH7.5, 0.1% Deoxycholate, 3 mM CaCl2, 1 mM EGTA, 0.1 mM DTT with phosphatidyl inositol (1-1000 μM) (PI) and 0.02 uCi [^3 H]-phosphatidyl inositol (PI) as substrate. The phospholipid components were dried under a gentle stream of nitrogen and resuspended in assay buffer. The substrate mix is then vortexed and sonicated (10 sec. with probe sonicator) to disperse the lipid and form micelles. After thermally preequilibrating the assay mixture in the absence of enzyme, the reaction was initiated by adding PLCγ1. Reactions containing 0.2 ml aliquots were terminated by addition of 1/4 volume 1N HCl, 5 mM EGTA and transferred to an ice bath. The quenched reactions are then filtered through a Q sepharose (Pharmacia) column. To prepare the Q sepharose column 1 ml of Q Sepharose slurry is added to a disposable plastic column. The resin is equilibrated by passing through 20 ml of 10 mM NH4 H2 PO4, pH 3.5. The quenched reaction, typically 200 μl, is applied to the column and 3 ml of 10 mM NH4 H2 PO4, pH 3.5 is added, the flow through from this step is collected in a scintillation vial, mixed with 10 ml of scintillation fluid and counted in a Beckman LS3801 scintillation counter.
PLC-β are obtained as described by S. G. Rhee et al., Meth. Enzym., 197:502-511 (1991). Specifically PLC-δ is purified from the cytosolic fraction of bovine brains, while PLC-β is mainly obtained from the particulate fraction. However, since the particulate and cytosolic forms of PLC-β are identical with respect to amino acid sequence, PLC-β-containing fractions pooled during the purification of the cytosolic PLC-δ are combined with the PLC-β fraction from the particulate fraction. A total of 36 bovine brains are used for the purification. Twelve brains are processed at one time.
Step 8: Ion-Exchange Chromatography of PLC-β on DEAE-Cellulose. Because of turbidity, the combined protein solution from Steps 2 and 3 cannot be chromatographed on a DEAE-cellulose column directly. Therefore, two stages of DEAE-cellulose chromatography, a batch procedure followed by a column step, are employed. In the batch step, all of the combined proteins are absorbed on 2 liters of DEAE-cellulose equilibrated with 20 mM Tris-HCl, pH 7.6, containing 5 mM EGTA and 0.1 mM DTT. The DEAE-cellulose slurry is stirred and then collected in a 4-liter sintered glass (coarse) filter funnel. The DEAE-cellulose is washed with the equilibration buffer until it is free of turbid lipid materials and unbound protein. For the column procedure, the washed DEAE-cellulose is removed from the filter funnel, mixed with the equilibration buffer, and poured onto a column already containing a 10 cm high bed of equilibrated DEAE-cellulose (final dimension, 8×45 cm). The column is eluted at a flow rate of 8 ml/min with an 8-liter linear gradient from 0 to 300 mM KCl buffer containing 50 mM Tris-HCl, pH 7.6, 1 mM EGTA, and 0.1 mM DTT. The activity peak is eluted at a KCl concentration of 110 mM. The peak fractions (600 ml) are pooled.
Step 9: Heparin-Agarose Chromatography of PLC-β. The pooled fraction from Step 8 (600 ml) is applied to a heparin-agarose column (5×25 cm) equilibrated with 20 mM HEPES, pH 7.0, 100 mM NaCl, 0.1 mM DTT, and 1 mM EGTA. The column is eluted with a linear gradient from 100 to 500 mM NaCl in 1.5 liters of equilibrium buffer. Peak fractions (310 ml) are pooled and concentrated on an Amicon filter to 27 ml.
Step 10: Reversed-Phase Chromatography of PLC-β on TSK Phenyl-5-PW. Solid KCl is added to the concentrated fractions from Step 9 to give a concentration of 3M, and the mixtures are centrifuged to remove denatured proteins. […]
Take `O=P(O)(O)C(O)c1cccc(Oc2cccc(Cl)c2)c1` (stereo not shown) [Example 1, 1-Hydroxy-1-(3-(3-chlorophenoxy)phenyl)methylphosphonic acid]: the IC50 amounted to 24 µM.
For the molecule `O=P(O)(O)C(O)c1cccc(Oc2ccccc2)c1` (stereo not shown) [Example 2, 1-Hydroxy-1-(3-phenoxyphenyl)methylphosphonic acid], the IC50 was greater than 300 µM.
For `O=P(O)(O)C(O)c1cccc(Oc2ccc(Cl)c(Cl)c2)c1` (stereo not shown) [Example 3, 1-Hydroxy-1-(3-(3,4-dichlorophenoxy)phenyl)methylphosphonic acid], the IC50 was determined as 110 µM.
Consider `O=P(O)(O)C(O)c1cccc(Oc2ccc(Cl)cc2)c1` (stereo not shown) [Example 4, 1-Hydroxy-1-(3-(4-chlorophenoxy)phenyl)methylphosphonic acid], for which the IC50 was found to be 65 µM.
For `O=P(O)(O)C(O)c1cccc(Oc2ccccc2Cl)c1` (stereo not shown) [Example 5, 1-Hydroxy-1-(3-(2-chlorophenoxy)phenyl)methylphosphonic acid], the half-maximal inhibitory concentration (IC50) amounted to 38 µM.
Regarding `COc1ccc(Oc2cccc(C(O)P(=O)(O)O)c2)cc1` (stereo not shown) [Example 6, 1-Hydroxy-1-(3-(4-methoxyphenoxy)phenyl)methylphosphonic acid], the IC50 was 717 µM.
With `Cc1ccc(Oc2cccc(C(O)P(=O)(O)O)c2)cc1` (stereo not shown) [Example 7, 1-Hydroxy-1-(3-(4-methylphenoxy)phenyl)methylphosphonic acid], the IC50 was determined as 31 µM.
Take `O=P(O)(O)C(O)c1cccc(Oc2ccc(O)cc2)c1` (stereo not shown) [Example 8, 1-Hydroxy-1-(3-(4-hydroxyphenoxy)phenyl)methylphosphonic acid]: the IC50 turned out to be 7 µM.
`O=P(O)(O)C(O)c1ccc(Oc2cccc(Cl)c2)cc1` (stereo not shown) [Example 9, 1-Hydroxy-1-(4-(3-chlorophenoxy)phenyl)methylphosphonic acid]: the IC50 amounted to 9 µM.
With `CCc1cccc(Oc2ccc(C(O)P(=O)(O)O)cc2)c1` (stereo not shown) [Example 10, 1-Hydroxy-1-(4-(3-ethylphenoxy)phenyl)methylphosphonic acid], the IC50 was 74 µM.
`COc1cccc(Oc2ccc(C(O)P(=O)(O)O)cc2)c1` (stereo not shown) [Example 11, 1-Hydroxy-1-(4-(3-methoxyphenoxy)phenyl)methylphosphonic acid]: the IC50 amounted to 11 µM.
Consider `O=P(O)(O)C(O)c1ccc(Oc2ccccc2)cc1` (stereo not shown) [reference compound], for which the IC50 was greater than 300 µM.
